Data on 1 molecule can be found in US9290457B2, “Substituted dihydropyrimidinones and their use as inhibitors of neutrophil elastase activity” (Boehringer Ingelheim International GmbH, priority 2014, dated 2016).

≈ marks a conversion by molar mass, not a printed value.

Series [1] deals with T1, neutrophil elastase (Homo sapiens (Human), UniProt P08246). In words: Neutrophil elastase inhibitory activity in human plasma. In kind it is biochemical. The following applies: zymosan-stimulated human plasma, substrate MeOSuc-Ala-Ala-Pro-Val-AMC. How it is done:
Assay for the Determination of Neutrophil Elastase Inhibitory Activity in Human Plasma
Citrated blood from human healthy donors is mixed with zymosan suspension and incubated at room temperature. This leads to the stimulation of neutrophils and the release of neutrophil elastase into the plasma. The stimulated blood is centrifuged to generate the neutrophil elastase enriched plasma.
Preparation of Zymosan Working Solution:
• A single 45 ml blood sample is taken into a 50 ml tube containing citrate (3.13%, 5 mL) and the tube is gently inverted 4 times. • Immediately after blood sampling, zymosan working solution (5 mL) is added. • After the addition of zymosan working solution, the tubes are capped, mixed gently and incubated at 22° C. for 15 min on a shaker at 20 rpm. • Make 10 ml aliquots after the incubation time. • Centrifuge the 15 ml tubes at 800 g for 15 min at 4° C. in a Jouan centrifuge. • Harvest the plasma and make 1-5 ml aliquots. • Store the plasma at −80° C.
Various concentrations of the neutrophil elastase inhibitor are incubated with plasma. Subsequently, the enzyme activity is measured using the fluorogenic substrate MeOSuc-Ala-Ala-Pro-Val-AMC (Bachem Cat. No. I-1270, substrate concentration: 250 μM, pH 7.5, 25 mM TRIS buffer, 250 mM NaCl) in analogous fashion as described for the human neutrophil assay. A dose response curve is generated to calculate the EC50 of the inhibitor. The analysis of the data is performed by the calculation of the percentage of fluorescence in the presence of the test compound compared to the fluorescence of the vehicle control after subtracting the background fluorescence: An inhibitor of the neutrophil elastase enzyme will give values between 100% control (no inhibition) and 0% control (complete inhibition).
Target sequence in this assay (P08246 30-267): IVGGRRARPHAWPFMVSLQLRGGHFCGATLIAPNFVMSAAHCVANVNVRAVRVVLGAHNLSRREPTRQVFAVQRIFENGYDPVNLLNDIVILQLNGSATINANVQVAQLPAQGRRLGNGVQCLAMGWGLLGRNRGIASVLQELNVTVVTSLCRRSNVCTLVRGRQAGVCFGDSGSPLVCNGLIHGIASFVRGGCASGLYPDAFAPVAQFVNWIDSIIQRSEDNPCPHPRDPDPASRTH

The target in series [2] is T1, neutrophil elastase. In words: Human Neutrophil Elastase Assay. The following applies: substrate MeOSuc-Ala-Ala-Pro-Val-AMC. The series is classed as biochemical.
Target sequence in this assay (P08246 30-247): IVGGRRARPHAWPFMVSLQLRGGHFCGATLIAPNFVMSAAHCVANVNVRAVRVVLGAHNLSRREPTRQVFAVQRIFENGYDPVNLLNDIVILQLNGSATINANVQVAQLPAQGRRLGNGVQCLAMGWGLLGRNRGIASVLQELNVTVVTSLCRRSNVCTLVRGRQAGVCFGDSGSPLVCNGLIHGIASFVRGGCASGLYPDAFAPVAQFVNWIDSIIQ
The nature of series [3]: Drug transport across human Caco-2 cells. The series is classed as in vitro ADME. The following applies: human, Caco-2, pH 7.2, 37° C. The text has this:
Assay for Determination of Drug Transport Across Human Caco-2 Cells
The assay provides information on the potential of a compound to pass the cell membrane, on the extent of oral absorption as well as on whether the compound is actively transported by uptake and/or efflux transporters. For the measurement of permeability across polarized, confluent human cancer colon carcinoma cells 2 (Caco-2) cell monolayers grown on permeable filter supports are used as the in vitro absorption model.
Apparent permeability coefficients (PE) of the compounds across the Caco-2 monolayers are measured (pH 7.2, 37° C.) in apical-to-basal (AB) (absorptive) and basal-to-apical (BA) (secretory) transport direction. AB permeability (PEAB) represents drug absorption from the intestine into the blood and BA permeability (PEBA) drug secretion from the blood back into the intestine via both passive permeability as well as active transport mechanisms mediated by efflux and uptake transporters that are expressed on the Caco-2 cells. The compounds are assigned to permeability/absorption classes by comparison of the AB permeabilities with the AB permeabilities of reference compounds with known in vitro permeability and oral absorption in the human. Identical or similar permeabilities in both transport directions indicate passive permeation, vectorial permeability points to additional active transport mechanisms. […] Active transport is concentration-dependently saturable.
Caco-2 cells (1-2*10^5 cells/cm^2 area) are seeded on filter inserts (Costar transwell polycarbonate or PET filters, 0.4 μm pore size) and cultured (DMEM) for 10 to 25 days. Compounds are dissolved in appropriate solvent (like DMSO, 1-20 mM stock solutions). Stock solutions are diluted with HTP-4 buffer (128.13 mM NaCl, 5.36 mM KCl, 1 mM MgSO4, 1.8 mM CaCl2, 4.17 mM NaHCO3, 1.19 mM Na2HPO4x7H2O, 0.41 mM NaH2PO4xH2O, 15 mM HEPES, 20 mM glucose, pH 7.2) to prepare the transport solutions (typically 10 μM compound, final DMSO<=0.5%). The transport solution (TL) is applied to the apical or basolateral donor side for measuring A-B or B-A permeability (3 filter replicates), respectively. The receiver side contains HTP-4 buffer supplemented with 2% BSA. Samples are collected at the start and end of experiment from the donor and at various time intervals for up to 2 hours also from the receiver side for concentration measurement by LC-MS/MS or scintillation counting. Sampled receiver volumes are replaced with fresh receiver solution.
The apparent permeability coefficients (PEAB and PEBA) of selected compounds in the Caco-2 drug transport assay described above are listed in Table 5.
Background: Caco-2 monolayers are a common model of the intestinal barrier.

The nature of a further series: Aqueous solubility. The series is classed as physicochemical. The note with it: McIlvaine buffer with 2.5% DMSO, aqueous buffer, kinetic from dmso stock, McIlvaine buffer pH 6.8, 2.5% DMSO. As to the method:
Assay for Determination of Aqueous Solubility
Starting from a 10 mM DMSO stock solution, aliquots are diluted with acetonitrile/water (1/1) and McIlvaine buffer pH 6.8, respectively. After 24 h of shaking, the solutions or suspensions are filtered and analyzed by LC-UV. The amount dissolved in buffer is compared to the amount dissolved in the acetonitrile/water (1/1) solution. Solubility is measured from 0.001 to 0.125 mg/ml at a DMSO concentration of 2.5%. If more than 90% of the compound is dissolved in buffer, the value is marked with “>”.

Series [4] is described as follows: Metabolic stability with human liver microsomes. In kind it is in vitro ADME. The following applies: pH 7.6; pooled human liver microsomes, 1 μM compound, 37° C.; read-out: t1/2 INVITRO. As to the method:
Assay for the Determination of Metabolic Stability with Human Liver Microsomes
The metabolic degradation of the test compound is assayed at 37° C. with pooled human liver microsomes. The final incubation volume of 100 μl per time point contains TRIS buffer pH 7.6 (0.1 M), magnesium chloride (5 mM), microsomal protein (1 mg/ml) and the test compound at a final concentration of 1 μM. Following a short preincubation period at 37° C., the reactions are initiated by addition of beta-nicotinamide adenine dinucleotide phosphate, reduced form (NADPH, 1 mM) and terminated by transferring an aliquot into acetonitrile after different time points. Additionally, the NADPH-independent degradation is monitored in incubations without NADPH, terminated at the last time point. The [%] remaining test compound after NADPH independent incubation is reflected by the parameter c(control) (metabolic stability). The quenched incubations are pelleted by centrifugation (10,000 g, 5 min) An aliquot of the supernatant is assayed by LC-MS/MS for the amount of parent compound.
The half-life (t1/2 INVITRO) is determined by the slope of the semilogarithmic plot of the concentration-time profile. The intrinsic clearance (CL_[…]) is calculated by considering the amount of protein in the incubation: CL_[…][μl/min/mg protein]=(ln 2/(half-life[min]*protein content[mg/ml]))*1,000.
The half-life (t1/2 INVITRO) values of selected compounds in the metabolic stability assay human liver microsomes described above are listed in Table 3.

In the case of `CC(=O)C1=C(C)N(c2cccc(C(F)(F)F)c2)C(=O)N(C)C1c1ccc(C#N)cc1-c1nnc(C)o1` (stereo not drawn) [Example 8, 4-[5-Acetyl-3,6-dimethyl-2-oxo-1-(3-trifluoromethyl-phenyl)-1,2,3,4-tetrahydro-pyrimidin-4-yl]-3-(5-methyl-[1,3,4]oxadiazol-2-yl)-benzonitrile], on neutrophil elastase [1], the midpoint of the response, the EC50, lay at 6 nM. The IC50 at neutrophil elastase [2] was < 1 nM. Further, the Papp A→B at 10 μM in series [3] (apical-to-basal, read-out: PEAB) was found to be 77 ×10⁻⁶ cm/s. Moreover, in series [3] (basal-to-apical, read-out: PEBA), the Papp B→A at 10 μM worked out at 63 ×10⁻⁶ cm/s. The concentration in solution in the series “Aqueous solubility” (solubility at 24 h) was 30 µg/mL (≈ 60.5 µM). The half-life at 1 μM in series [4] was > 130 min.

In general, EC50 refers to the concentration needed to bring the measured effect to its halfway point. A higher EC50 goes with a need for much substance. The IC50 is the concentration needed to halve the response being measured. Higher therefore signals weaker potency in that assay. As usually defined, the solubility is the dissolved amount per volume that the medium holds. Read a high solubility as a readily soluble substance.
